The target of assay [1] is Ephrin type-A receptor 2 (Homo sapiens, UniProt P29317). In words: Inhibition of recombinant human N-terminal His6-tagged EphA2 (N598 to R890 residues) expressed in baculovirus using poly-EY as substrate after 180 mins by luciferase coupled chemiluminescence assay.
Assay [2] has as its target Vascular endothelial growth factor receptor 2 (Homo sapiens, UniProt P35968). Put plainly: Inhibition of recombinant human N-terminal GST-fused KDR (D807 to V1356 residues) expressed in baculovirus infected […] insect Sf9 cells using poly-EY as substrate after 240 mins by luciferase coupled chemiluminescence assay.
Assay [3] concerns the target T1, Ephrin type-B receptor 4 (Homo sapiens, UniProt P54760).
T1 sequence (P54760 whole entry): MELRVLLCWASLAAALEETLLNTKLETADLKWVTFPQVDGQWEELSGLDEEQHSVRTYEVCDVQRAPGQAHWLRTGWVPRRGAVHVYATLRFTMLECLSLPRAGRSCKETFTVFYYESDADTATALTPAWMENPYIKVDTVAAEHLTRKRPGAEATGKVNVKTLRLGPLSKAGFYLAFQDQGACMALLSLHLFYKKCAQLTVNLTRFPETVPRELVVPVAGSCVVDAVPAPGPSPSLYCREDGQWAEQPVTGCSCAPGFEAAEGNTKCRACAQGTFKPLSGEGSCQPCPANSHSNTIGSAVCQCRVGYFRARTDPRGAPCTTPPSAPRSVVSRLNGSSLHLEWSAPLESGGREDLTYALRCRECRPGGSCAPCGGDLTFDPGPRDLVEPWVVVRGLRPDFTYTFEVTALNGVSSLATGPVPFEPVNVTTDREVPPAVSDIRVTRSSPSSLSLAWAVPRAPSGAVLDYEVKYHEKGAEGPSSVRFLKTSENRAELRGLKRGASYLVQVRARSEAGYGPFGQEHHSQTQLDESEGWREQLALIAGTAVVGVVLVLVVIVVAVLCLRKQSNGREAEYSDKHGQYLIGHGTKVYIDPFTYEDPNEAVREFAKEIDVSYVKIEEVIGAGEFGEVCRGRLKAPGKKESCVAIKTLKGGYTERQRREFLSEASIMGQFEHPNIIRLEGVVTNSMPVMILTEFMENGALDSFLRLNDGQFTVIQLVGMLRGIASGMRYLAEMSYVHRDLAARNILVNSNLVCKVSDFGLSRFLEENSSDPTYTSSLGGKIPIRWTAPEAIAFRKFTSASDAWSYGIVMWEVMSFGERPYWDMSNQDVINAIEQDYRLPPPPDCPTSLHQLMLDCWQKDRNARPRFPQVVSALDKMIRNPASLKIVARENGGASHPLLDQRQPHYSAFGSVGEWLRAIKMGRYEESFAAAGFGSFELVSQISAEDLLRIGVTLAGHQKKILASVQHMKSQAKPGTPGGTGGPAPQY
Put plainly: Inhibition of recombinant human N-terminal His6-tagged EphB4 kinase domain (E605 to E890 residues) expressed in baculovirus using poly-AEKY as substrate after 150 mins in presence of gamma33P-ATP by liquid scintillation spectrometry.

This passage reports IC50 results from ChEMBL document CHEMBL3882729, “Receptor-type kinase modulators and methods of use” (2009).

SMILES strings stand for the structures.

What is called IC50 is the concentration that inhibits the measured activity by half.

Chain of Vascular endothelial growth factor receptor 2 (P35968 whole entry, the tested form may be a part): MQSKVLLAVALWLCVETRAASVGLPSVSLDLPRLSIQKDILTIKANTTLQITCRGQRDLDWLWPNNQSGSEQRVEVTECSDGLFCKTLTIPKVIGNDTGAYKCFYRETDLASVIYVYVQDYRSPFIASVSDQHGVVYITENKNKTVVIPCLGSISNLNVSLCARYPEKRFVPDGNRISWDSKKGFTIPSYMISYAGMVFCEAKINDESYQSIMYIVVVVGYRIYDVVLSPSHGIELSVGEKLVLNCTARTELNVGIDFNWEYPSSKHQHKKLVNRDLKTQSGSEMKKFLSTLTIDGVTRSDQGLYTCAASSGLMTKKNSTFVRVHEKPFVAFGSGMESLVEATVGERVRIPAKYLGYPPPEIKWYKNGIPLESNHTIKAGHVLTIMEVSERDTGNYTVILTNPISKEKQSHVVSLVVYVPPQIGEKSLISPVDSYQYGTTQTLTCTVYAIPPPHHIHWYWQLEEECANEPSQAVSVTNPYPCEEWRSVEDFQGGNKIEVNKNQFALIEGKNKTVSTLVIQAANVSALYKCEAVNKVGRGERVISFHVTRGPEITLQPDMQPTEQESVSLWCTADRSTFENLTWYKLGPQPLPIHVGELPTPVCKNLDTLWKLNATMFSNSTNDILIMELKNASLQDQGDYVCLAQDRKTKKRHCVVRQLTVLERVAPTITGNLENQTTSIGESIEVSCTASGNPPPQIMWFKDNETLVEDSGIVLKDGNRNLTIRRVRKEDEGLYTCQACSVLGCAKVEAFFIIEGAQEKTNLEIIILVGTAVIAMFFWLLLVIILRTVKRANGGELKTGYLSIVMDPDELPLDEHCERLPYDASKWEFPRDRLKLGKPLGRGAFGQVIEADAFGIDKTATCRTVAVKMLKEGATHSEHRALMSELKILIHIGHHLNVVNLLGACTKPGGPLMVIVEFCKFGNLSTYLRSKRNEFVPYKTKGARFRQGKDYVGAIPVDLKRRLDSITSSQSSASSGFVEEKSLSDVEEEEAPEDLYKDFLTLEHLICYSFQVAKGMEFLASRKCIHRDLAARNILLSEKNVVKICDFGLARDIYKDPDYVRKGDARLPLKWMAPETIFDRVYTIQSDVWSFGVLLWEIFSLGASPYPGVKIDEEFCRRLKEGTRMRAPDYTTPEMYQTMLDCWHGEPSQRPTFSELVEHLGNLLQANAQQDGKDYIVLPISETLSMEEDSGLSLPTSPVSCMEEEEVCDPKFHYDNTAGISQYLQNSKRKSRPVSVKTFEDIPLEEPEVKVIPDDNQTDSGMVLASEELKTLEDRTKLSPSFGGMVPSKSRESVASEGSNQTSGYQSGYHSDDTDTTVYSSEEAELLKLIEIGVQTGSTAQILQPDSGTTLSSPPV
Chain of Ephrin type-A receptor 2 (P29317 whole entry, the tested form may be a part): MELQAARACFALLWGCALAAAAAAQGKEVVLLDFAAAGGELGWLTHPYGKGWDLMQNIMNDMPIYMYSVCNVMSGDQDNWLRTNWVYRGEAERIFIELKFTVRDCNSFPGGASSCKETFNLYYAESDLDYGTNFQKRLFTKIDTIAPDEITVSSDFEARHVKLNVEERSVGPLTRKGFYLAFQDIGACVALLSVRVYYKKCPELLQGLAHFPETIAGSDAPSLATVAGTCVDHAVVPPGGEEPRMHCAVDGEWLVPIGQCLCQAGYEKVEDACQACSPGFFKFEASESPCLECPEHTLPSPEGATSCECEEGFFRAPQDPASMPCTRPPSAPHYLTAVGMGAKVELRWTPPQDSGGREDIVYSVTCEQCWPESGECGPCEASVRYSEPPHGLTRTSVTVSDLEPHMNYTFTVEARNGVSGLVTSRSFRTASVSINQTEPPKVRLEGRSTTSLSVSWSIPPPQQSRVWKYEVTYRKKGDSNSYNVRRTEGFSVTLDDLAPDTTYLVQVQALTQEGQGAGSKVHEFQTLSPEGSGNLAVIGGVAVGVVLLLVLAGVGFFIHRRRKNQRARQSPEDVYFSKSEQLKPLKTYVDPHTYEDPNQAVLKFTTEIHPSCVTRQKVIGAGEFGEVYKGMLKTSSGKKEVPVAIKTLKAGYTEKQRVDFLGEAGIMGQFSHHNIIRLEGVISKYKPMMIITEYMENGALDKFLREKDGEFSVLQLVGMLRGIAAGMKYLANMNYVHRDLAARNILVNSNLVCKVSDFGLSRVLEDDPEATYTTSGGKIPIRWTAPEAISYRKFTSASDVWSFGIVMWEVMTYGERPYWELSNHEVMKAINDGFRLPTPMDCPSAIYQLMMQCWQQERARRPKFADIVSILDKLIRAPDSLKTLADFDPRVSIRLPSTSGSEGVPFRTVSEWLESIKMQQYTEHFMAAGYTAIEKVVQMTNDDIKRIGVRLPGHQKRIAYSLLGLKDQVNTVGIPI

With `CN1CCOC(COc2cc3ncnc(Nc4ccc(Cl)c(Cl)c4)c3cc2O)C1` (stereo unspecified), the IC50 in assay [1], in assay [2] and in assay [3] was 50 to 1000 nM each time.

For the compound `CCCCCC(=O)N1CCOC(COc2cc3ncnc(Nc4ccc(Cl)c(Cl)c4)c3cc2OC)C1` (stereo unspecified), the 50% inhibitory concentration (IC50) in assay [1], in assay [2] and in assay [3] was 50 to 1000 nM in each case.

On to `COc1cc2c(Nc3ccc(Br)cc3F)ncnc2cc1OCC1CN(C)CCO1` (stereo unspecified), for which the IC50 in assay [1] was 50 to 1000 nM; in assay [2], < 50 nM; in assay [3], 50 to 1000 nM.

For `COc1cc2c(Nc3ccc(Cl)c(Cl)c3)ncnc2cc1OCC1CN(/C(=N/C#N)N2CCN(C)CC2)CCO1` (stereo unspecified), the IC50 in assay [1] was 50 to 1000 nM; in assay [2], < 50 nM; in assay [3], < 50 nM.

Turning to `COc1cc2c(Nc3ccc(Cl)c(Cl)c3)ncnc2cc1OCC1OCCN(CC(=O)c2ccccc2)C1=O` (stereo unspecified), the half-inhibitory concentration (IC50) in assay [1], in assay [2] and in assay [3] was 50 to 1000 nM throughout.

Consider `CCN1CCN(C)CC1COc1cc2ncnc(Nc3ccc(Cl)c(Cl)c3)c2cc1OC` (stereo unspecified), for which the results for the IC50 in assay [1], in assay [2] and in assay [3] were 50 to 1000 nM, 1000 to 20000 nM and 50 to 1000 nM, respectively.

Turning to `COc1cc2c(Nc3ccc(Cl)c(Cl)c3)ncnc2cc1OCC1CN(C(=O)c2ccc(Cl)nc2)CCO1` (stereo unspecified), the IC50 in assay [1] was 50 to 1000 nM; in assay [2], 50 to 1000 nM; in assay [3], < 50 nM.

Take `COc1cc2c(Nc3ccc(Cl)c(Cl)c3)ncnc2cc1OCC1CN(C(C)C(C)=O)CCO1` (stereo unspecified): the concentration for half-maximal inhibition (IC50) in assay [1], in assay [2] and in assay [3] was 50 to 1000 nM throughout.

Consider `COc1cc2c(Nc3ccc(Cl)c(Cl)c3)ncnc2cc1OCC1CN(CCCOC2CCCCO2)CCCO1` (stereo unspecified), for which the values for the IC50 in assay [1], in assay [2] and in assay [3] were 50 to 1000 nM, < 50 nM and < 50 nM, respectively.

For the compound `CCCCCCCN1CCOC(COc2cc3ncnc(Nc4ccc(Cl)c(Cl)c4)c3cc2OC)C1` (stereo unspecified), the IC50 lay within 1000 to 20000 nM in assay [1], 50 to 1000 nM in assay [2] and 50 to 1000 nM in assay [3].

On to `C=CCCCN1CCOC(COc2cc3ncnc(Nc4ccc(Cl)c(Cl)c4)c3cc2OC)C1` (stereo unspecified), for which the IC50 in assay [1] is 50 to 1000 nM; in assay [2], < 50 nM; in assay [3], < 50 nM.

On to `CCC(C(=O)N1CCOC(COc2cc3ncnc(Nc4ccc(Cl)c(Cl)c4)c3cc2OC)C1)c1ccccc1` (stereo unspecified), for which the IC50 in assay [1] is 1000 to 20000 nM; in assay [2] it was 50 to 1000 nM; in assay [3] it was 50 to 1000 nM.

For the compound `COc1cc2c(Nc3ccc(Cl)cc3Cl)ncnc2cc1OCC1CN(C)CCO1` (stereo unspecified), the IC50 in assay [1], in assay [2] and in assay [3] was 50 to 1000 nM each time.

With `COc1cc2c(Nc3ccc(Cl)c(Cl)c3)ncnc2cc1OCC1CN(Cc2ccc(F)cc2)CCO1` (stereo unspecified), the IC50 in assay [1], in assay [2] and in assay [3] was 50 to 1000 nM each time.

Take `COc1cc2c(Nc3ccc(Cl)c(Cl)c3)ncnc2cc1OCC1CN(C/C=C/Br)CCO1` (stereo unspecified): the IC50 in assay [1], in assay [2] and in assay [3] was 50 to 1000 nM in each case.

On to `CCCN1CCOC(COc2cc3ncnc(Nc4ccc(Cl)c(Cl)c4)c3cc2OC)C1` (stereo unspecified), for which the IC50 in assay [1] is 50 to 1000 nM; in assay [2], 50 to 1000 nM; in assay [3] it was < 50 nM.

On to `COc1cc2c(Nc3cc(Cl)ccc3F)ncnc2cc1OCC1CN(C)CCO1` (stereo unspecified), for which the IC50 in assay [1], in assay [2] and in assay [3] was 50 to 1000 nM throughout.

As to `COc1cc2c(Nc3ccc(Cl)c(Cl)c3)ncnc2cc1OCC1CN(C(=O)c2cc(F)ccc2F)CCO1` (stereo unspecified), the 50% inhibitory concentration (IC50) in assay [1], in assay [2] and in assay [3] was 50 to 1000 nM each time.

Take `COc1cc2c(Nc3ccc(Cl)c(Cl)c3)ncnc2cc1OCC1CN(CCC2CCCCC2)CCO1` (stereo unspecified): the concentration for half-maximal inhibition (IC50) in assay [1], in assay [2] and in assay [3] was 50 to 1000 nM in each case.

Take `COc1cc2c(Nc3ccc(Cl)c(Cl)c3)ncnc2cc1OCC1CN(CCF)CCO1` (stereo unspecified): the half-inhibitory concentration (IC50) in assay [1], in assay [2] and in assay [3] was 50 to 1000 nM in each case.

For the compound `COc1cc2c(Nc3ccc(Cl)cc3F)ncnc2cc1OCC1CN(C)CCO1` (stereo unspecified), the IC50 was 50 to 1000 nM in assay [1], < 50 nM in assay [2] and 50 to 1000 nM in assay [3].

With `COc1cc2c(Nc3ccc(Cl)c(Cl)c3)ncnc2cc1OCC1CN(S(=O)(=O)c2ccc(C)cc2)CCO1` (stereo unspecified), the IC50 in assay [1] is 1000 to 20000 nM; in assay [2], 50 to 1000 nM; in assay [3], 1000 to 20000 nM.

In the case of `CCCC(CCC)C(=O)N1CCOC(COc2cc3ncnc(Nc4ccc(Cl)c(Cl)c4)c3cc2OC)C1` (stereo unspecified), the 50% inhibitory concentration (IC50) in assay [1], in assay [2] and in assay [3] was 50 to 1000 nM each time.

Turning to `COc1cc2c(Nc3ccc(Cl)c(Cl)c3)ncnc2cc1OCC1CN(CCC2OCCO2)CCO1` (stereo unspecified), the figures for the IC50 in assay [1], in assay [2] and in assay [3] were 50 to 1000 nM, 50 to 1000 nM and < 50 nM, respectively.

As to `CCN1CCN(C(C)=O)CC1COc1cc2ncnc(Nc3ccc(Cl)c(Cl)c3)c2cc1OC` (stereo unspecified), the 50% inhibitory concentration (IC50) in assay [1] was 50 to 1000 nM; in assay [2] it was 1000 to 20000 nM; in assay [3], < 50 nM.

Take `COc1cc2c(Nc3cccc(Br)c3C)ncnc2cc1OCC1CN(C)CCO1` (stereo unspecified): the IC50 in assay [1], in assay [2] and in assay [3] was 50 to 1000 nM each time.

For `COc1cc2c(Nc3ccc(Cl)c(Cl)c3)ncnc2cc1OCC1CN(S(=O)(=O)Cc2ccccc2)CCO1` (stereo unspecified), the IC50 in assay [1], in assay [2] and in assay [3] was 50 to 1000 nM each time.

For `CCCC(C)C(=O)N1CCOC(COc2cc3ncnc(Nc4ccc(Cl)c(Cl)c4)c3cc2OC)C1` (stereo unspecified), the half-inhibitory concentration (IC50) in assay [1], in assay [2] and in assay [3] was 50 to 1000 nM each time.

Take `COc1cc2c(Nc3ccc(Cl)c(Cl)c3)ncnc2cc1OCC1CN(Cc2ccccn2)CCO1` (stereo unspecified): the values for the IC50 in assay [1], in assay [2] and in assay [3] were 50 to 1000 nM, < 50 nM and 50 to 1000 nM, respectively.

`COc1cc2c(Nc3ccc(Cl)c(Cl)c3)ncnc2cc1OCC1CN(CCC2CCCCC2)CCCO1` (stereo unspecified): the IC50 in assay [1], in assay [2] and in assay [3] was 50 to 1000 nM each time.

For `COc1cc(Nc2ncnc3cc(OCC4CN(C)CCO4)c(OC)cc23)c(OC)cc1Cl` (stereo unspecified), the IC50 lay within 50 to 1000 nM in assay [1], 1000 to 20000 nM in assay [2] and 50 to 1000 nM in assay [3].

For the compound `CCC1(C)CN(C)CC(COc2cc3ncnc(Nc4ccc(Cl)c(Cl)c4)c3cc2OC)O1` (stereo unspecified), the IC50 in assay [1], in assay [2] and in assay [3] was 50 to 1000 nM throughout.

In the case of `COc1cc2c(Nc3ccc(Cl)c(C)c3)ncnc2cc1OCC1CN(C)CCO1` (stereo unspecified), the IC50 in assay [1], in assay [2] and in assay [3] was 50 to 1000 nM each time.

On to `COc1cc2c(Nc3ccc(Cl)c(Cl)c3)ncnc2cc1OCC1CN(C2CCC2)CCO1` (stereo unspecified), for which the results for the concentration for half-maximal inhibition (IC50) in assay [1], in assay [2] and in assay [3] were 50 to 1000 nM, < 50 nM and 50 to 1000 nM, respectively.

`COc1cc2c(Nc3ccc(Cl)c(Cl)c3)ncnc2cc1OCC1CN(C(=O)c2cccc3ccccc23)CCO1` (stereo unspecified): the results for the IC50 in assay [1], in assay [2] and in assay [3] were 1000 to 20000 nM, 50 to 1000 nM and 50 to 1000 nM, respectively.

With `COC(=O)CCC(=O)N1CCOC(COc2cc3ncnc(Nc4ccc(Cl)c(Cl)c4)c3cc2OC)C1` (stereo unspecified), the IC50 in assay [1], in assay [2] and in assay [3] was 50 to 1000 nM each time.

Turning to `CC#CCN1CCOC(COc2cc3ncnc(Nc4ccc(Cl)c(Cl)c4)c3cc2OC)C1` (stereo unspecified), the IC50 in assay [1], in assay [2] and in assay [3] was 50 to 1000 nM in each case.
